{"source": "patent US8895585B2", "about": "“Nicotinamide derivative or salt thereof” (FUJIFILM Corporation, priority 2010, dated 2014)", "key": {"[1]": {"tested_on": "THP-1 cells", "assay": "TNFα generation assay", "format": "cell-based, human", "in_short": "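Secreted TNFα in supernatant quantified by ELISA or AlphaLISA after 7 h culture on human IgG-coated wells (10 μg/ml coating). Cells were IFN-γ-differentiated THP-1 (10 ng/ml, 2 days), exposed to compound for 30 min at room temperature before plating.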"}, "[2]": {"target": "T1, glutathione S-transferase (GST)-fused full-length human Syk protein (Homo sapiens, UniProt P43405)", "T1 construct": "(GST)-fused full-length human Syk protein; GST (glutathione S-transferase); purchased Carna Biosciences", "assay": "Syk enzyme assay", "format": "biochemical", "in_short": "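IC50 values come from a time-resolved FRET readout (615 and 665 nm) of substrate phosphorylation, measured after an EDTA stop and 1 h antibody binding. The kinase reaction ran 40 min at room temperature with 27 μM ATP and 0.4 μM biotin-peptide, following a 15 min compound preincubation with baculovirus-made GST-full-length human Syk.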"}, "[3]": {"conditions": "Homo sapiens, THP-1, THP-1 cells, Table 22, read-out: IC50 in TNFα generation assay"}, "[4]": {"conditions": "Syk enzyme assay, Test Example 1, read-out: IC50 of Syk-inhibitory activity"}, "[5]": {"conditions": "Homo sapiens, THP-1, 7 h, IFN-γ-differentiated THP-1 cells on human IgG-coated plate, cultured 7 hours, read-out: TNFα generation inhibitory activity (IC50)"}, "[6]": {"conditions": "read-out: Syk-inhibitory activity (IC50)"}}, "note": "pIC50: −log10 of the molar value. Read-outs that look alike come from different tables or passages of the source.", "data": [{"smiles": "Cc1cc(Nc2nc(N[C@H](c3ccc(F)cc3)[C@H](C)N)c(F)cc2C(N)=O)cnc1C", "note": "[Example 006-558, 6-(((1R,2S)-2-amino-1-(4-fluorophenyl)propyl)amino)-2-((5,6-dimethylpyridin-3-yl)amino)-5-fluoronicotinamide]", "values": [{"measurement": "pIC50", "setting": "[1]; [3]", "value": "6.89 to 7.19"}, {"measurement": "pIC50", "setting": "[2]; [4]", "value": "> 8.00"}]}, {"smiles": "Cc1ncc(Nc2nc(NC3CCCCC3N)c(F)cc2C(N)=O)cc1-c1ccoc1", "note": "(stereo not shown) [Example 002-117]", "values": [{"measurement": "pIC50", "setting": "[1]; [3]", "value": "6.89 to 7.19"}, {"measurement": "pIC50", "setting": "[2]; [4]", "value": "> 8.00"}]}, {"smiles": "CCC[C@@H](Nc1nc(Nc2ccc3scnc3c2)c(C(N)=O)cc1F)[C@H](C)N", "note": "[Example 006-308, 6-(((2S,3R)-2-aminohexan-3-yl)amino)-2-(benzo[d]thiazol-5-ylamino)-5-fluoronicotinamide]", "values": [{"measurement": "pIC50", "setting": "[1]; [3]", "value": "6.89 to 7.19"}, {"measurement": "pIC50", "setting": "[2]; [4]", "value": "> 8.00"}]}, {"smiles": "C[C@H](N)[C@@H](CC1CC1)Nc1nc(Nc2ccc3c(cnn3C)c2)c(C(N)=O)cc1F", "note": "[Example 006-345, 6-(((2R,3S)-3-amino-1-cyclopropylbutan-2-yl)amino)-5-fluoro-2-((1-methyl-1H-indazol-5-yl)amino)nicotinamide]", "values": [{"measurement": "pIC50", "setting": "[1]; [3]", "value": "6.89 to 7.19"}, {"measurement": "pIC50", "setting": "[2]; [4]", "value": "> 8.00"}]}, {"smiles": "COCCOc1cc(Nc2nc(N[C@H](CC3CC3)[C@H](C)N)c(F)cc2C(N)=O)ccn1", "note": "[Example 006-394, 6-(((2R,3S)-3-amino-1-cyclopropylbutan-2-yl)amino)-5-fluoro-2-((2-(2-methoxyethoxy)pyridin-4-yl)amino)nicotinamide]", "values": [{"measurement": "pIC50", "setting": "[1]; [3]", "value": "6.89 to 7.19"}, {"measurement": "pIC50", "setting": "[2]; [4]", "value": "> 8.00"}]}, {"smiles": "NC(=O)c1cc(F)c(N[C@@H]2CCCC[C@@H]2N)nc1Nc1cnc2c(c1)CCC2", "note": "(relative stereo) [Example 004-162, 6-(cis-2-aminocyclohexylamino)-2-((6,7-dihydro-5H-cyclopenta[b]pyridin-3-yl)amino)-5-fluoronicotinamide]", "values": [{"measurement": "pIC50", "setting": "[1]; [3]", "value": "6.70 to 6.89"}, {"measurement": "pIC50", "setting": "[2]; [4]", "value": "> 8.00"}]}, {"smiles": "NC(=O)c1cc(F)c(NC2CCCCC2N)nc1Nc1ccc(-n2cccn2)nc1", "note": "(stereo not shown) [Example 002-160]", "values": [{"measurement": "pIC50", "setting": "[1]; [3]", "value": "6.70 to 6.89"}, {"measurement": "pIC50", "setting": "[2]; [4]", "value": "7.30 to 8.00"}]}, {"smiles": "CC(C)C[C@@H](Nc1nc(Nc2ccc3c(c2)c(F)nn3C)c(C(N)=O)cc1F)[C@H](C)N", "note": "[Example 006-511, 6-(((2S,3R)-2-amino-5-methylhexan-3-yl)amino)-5-fluoro-2-((3-fluoro-1-methyl-1H-indazol-5-yl)amino)nicotinamide]", "values": [{"measurement": "pIC50", "setting": "[1]; [3]", "value": "> 7.19"}, {"measurement": "pIC50", "setting": "[2]; [4]", "value": "> 8.00"}]}, {"smiles": "NC(=O)c1cc(F)c(N[C@@H]2CCCC[C@@H]2N)nc1Nc1cncc(-c2cccc(N)c2)c1", "note": "(relative stereo) [Example 004-217, 6-(cis-2-aminocyclohexylamino)-2-((5-(3-aminophenyl)pyridin-3-yl)amino)-5-fluoronicotinamide]", "values": [{"measurement": "pIC50", "setting": "[1]; [3]", "value": "6.89 to 7.19"}, {"measurement": "pIC50", "setting": "[2]; [4]", "value": "> 8.00"}]}, {"smiles": "C[C@H](N)[C@@H](CC1CC1)Nc1nc(Nc2cncc(-n3nccn3)c2)c(C(N)=O)cc1F", "note": "[Example 006-352, 2-((5-(2H-1,2,3-triazol-2-yl)pyridin-3-yl)amino)-6-(((2R,3S)-3-amino-1-cyclopropylbutan-2-yl)amino)-5-fluoronicotinamide]", "values": [{"measurement": "pIC50", "setting": "[1]; [3]", "value": "> 7.19"}, {"measurement": "pIC50", "setting": "[2]; [4]", "value": "> 8.00"}]}, {"smiles": "C[C@H](N)[C@H](Nc1nc(Nc2cncc(-n3cccn3)c2)c(C(N)=O)cc1F)C1CC1", "note": "[Example 006-373, 2-((5-(1H-pyrazol-1-yl)pyridin-3-yl)amino)-6-(((1R,2S)-2-amino-1-cyclopropylpropyl)amino)-5-fluoronicotinamide]", "values": [{"measurement": "pIC50", "setting": "[1]; [3]", "value": "> 7.19"}, {"measurement": "pIC50", "setting": "[2]; [4]", "value": "> 8.00"}]}, {"smiles": "NC(=O)c1cc(F)c(NC2CCCCC2N)nc1Nc1ccc2c(cnn2CCF)c1", "note": "(stereo not shown) [Example 002-200]", "values": [{"measurement": "pIC50", "setting": "[1]; [3]", "value": "> 7.19"}, {"measurement": "pIC50", "setting": "[2]; [4]", "value": "> 8.00"}]}, {"smiles": "NC(=O)c1cc(F)c(N[C@@H]2CCCC[C@@H]2N)nc1Nc1cncc(-c2ccc(N3CCCC3=O)cc2)c1", "note": "(relative stereo) [Example 004-226, 6-(cis-2-aminocyclohexylamino)-5-fluoro-2-((5-(4-(2-oxopyrrolidin-1-yl)phenyl)pyridin-3-yl)amino)nicotinamide]", "values": [{"measurement": "pIC50", "setting": "[1]; [3]", "value": "6.70 to 6.89"}, {"measurement": "pIC50", "setting": "[2]; [4]", "value": "> 8.00"}]}, {"smiles": "NC(=O)c1cc(F)c(N[C@@H]2CCCC[C@@H]2N)nc1Nc1ccnc(-n2cccc2)c1", "note": "(relative stereo) [Example 006-124, 2-((2-(1H-pyrrol-1-yl)pyridin-4-yl)amino)-6-((cis-2-aminocyclohexyl)amino)-5-fluoronicotinamide]", "values": [{"measurement": "pIC50", "setting": "[1]; [3]", "value": "6.70 to 6.89"}, {"measurement": "pIC50", "setting": "[2]; [4]", "value": "> 8.00"}]}, {"smiles": "NC(=O)c1cc(F)c(N[C@@H](C(N)=O)c2ccccc2)nc1Nc1ccc2ncccc2c1", "note": "[Example 12-8, 6-(((1R)-2-amino-2-oxo-1-phenylethyl)amino)-5-fluoro-2-(quinolin-6-ylamino)nicotinamide]", "values": [{"measurement": "pIC50", "setting": "[1]; [5]", "value": "≥ 6.70"}, {"measurement": "pIC50", "setting": "[2]; [6]", "value": "≥ 6.00"}]}, {"smiles": "NC(=O)c1cc(F)c(N[C@@H]2CCCC[C@@H]2N)nc1Nc1ccc2ncccc2c1", "note": "[Example 37-3, 6-((1R,2S)-2-aminocyclohexylamino)-5-fluoro-2-((quinolin-6-yl)amino)nicotinamide]", "values": [{"measurement": "pIC50", "setting": "[1]; [3]", "value": "> 7.19"}, {"measurement": "pIC50", "setting": "[2]; [4]", "value": "> 8.00"}]}, {"smiles": "C[C@H](N)CNc1nc(Nc2ccc3ncccc3c2)c(C(N)=O)cc1F", "note": "[Example 13, 6-((2S)-2-aminopropylamino)-5-fluoro-2-(quinolin-6-ylamino)nicotinamide]", "values": [{"measurement": "pIC50", "setting": "[1]; [5]", "value": "≥ 6.70"}, {"measurement": "pIC50", "setting": "[2]; [6]", "value": "≥ 6.00"}]}, {"smiles": "NC(=O)c1cc(F)c(N[C@@H]2CCCC[C@@H]2N)nc1Nc1cncc(-c2cncs2)c1", "note": "(relative stereo) [Example 004-074, 6-(cis-2-aminocyclohexylamino)-5-fluoro-2-((5-(thiazol-5-yl)pyridin-3-yl)amino)-nicotinamide]", "values": [{"measurement": "pIC50", "setting": "[1]; [3]", "value": "6.89 to 7.19"}, {"measurement": "pIC50", "setting": "[2]; [4]", "value": "> 8.00"}]}, {"smiles": "Cc1nn(CC(F)F)c2ccc(Nc3nc(NC4CCCCC4N)c(F)cc3C(N)=O)cc12", "note": "(stereo not shown) [Example 002-210]", "values": [{"measurement": "pIC50", "setting": "[1]; [3]", "value": "6.89 to 7.19"}, {"measurement": "pIC50", "setting": "[2]; [4]", "value": "> 8.00"}]}, {"smiles": "Cc1cncc(Nc2nc(N[C@H](C)[C@H](C)N)c(F)cc2C(N)=O)c1", "note": "[Example 006-108]", "values": [{"measurement": "pIC50", "setting": "[1]; THP-1 cells, Table 22, read-out: IC50 in TNFα generation assay", "value": "6.89 to 7.19"}, {"measurement": "pIC50", "setting": "[2]; [4]", "value": "7.30 to 8.00"}]}, {"smiles": "Cn1ncc2cc(Nc3nc(N[C@@H](CN)CC4CC4)c(F)cc3C(N)=O)ccc21", "note": "[Example 006-282, (R)-6-((1-amino-3-cyclopropylpropan-2-yl)amino)-5-fluoro-2-((1-methyl-1H-indazol-5-yl)amino)nicotinamide]", "values": [{"measurement": "pIC50", "setting": "[1]; [3]", "value": "> 7.19"}, {"measurement": "pIC50", "setting": "[2]; [4]", "value": "> 8.00"}]}, {"smiles": "CCC[C@@H](Nc1nc(Nc2cccc3c2cnn3C)c(C(N)=O)cc1F)[C@H](C)N", "note": "[Example 006-251, 6-(((2S,3R)-2-aminohexan-3-yl)amino)-5-fluoro-2-((1-methyl-1H-indazol-4-yl)amino)nicotinamide]", "values": [{"measurement": "pIC50", "setting": "[1]; [3]", "value": "> 7.19"}, {"measurement": "pIC50", "setting": "[2]; [4]", "value": "> 8.00"}]}, {"smiles": "CC[C@H](N)[C@@H](CC(C)C)Nc1nc(Nc2ccc3ncccc3c2)c(C(N)=O)cc1F", "note": "[Example 006-201, 6-(((4R,5S)-5-amino-2-methylheptan-4-yl)amino)-5-fluoro-2-((quinolin-6-yl)amino)nicotinamide]", "values": [{"measurement": "pIC50", "setting": "[1]; [3]", "value": "6.70 to 6.89"}, {"measurement": "pIC50", "setting": "[2]; [4]", "value": "> 8.00"}]}, {"smiles": "CC[C@@H](Nc1nc(Nc2cccc3c2cnn3CC)c(C(N)=O)cc1F)[C@H](C)N", "note": "[Example 006-523, 6-(((2S,3R)-2-aminopentan-3-yl)amino)-2-((1-ethyl-1H-indazol-4-yl)amino)-5-fluoronicotinamide]", "values": [{"measurement": "pIC50", "setting": "[1]; [3]", "value": "> 7.19"}, {"measurement": "pIC50", "setting": "[2]; [4]", "value": "> 8.00"}]}, {"smiles": "CCc1cncc(Nc2nc(NC3CCCCC3N)c(F)cc2C(N)=O)c1", "note": "(stereo not shown) [Example 002-038]", "values": [{"measurement": "pIC50", "setting": "[1]; [3]", "value": "6.89 to 7.19"}, {"measurement": "pIC50", "setting": "[2]; [4]", "value": "> 8.00"}]}, {"smiles": "COc1nccc2cc(Nc3nc(N[C@@H]4CCCC[C@@H]4N)c(F)cc3C(N)=O)ccc12", "note": "(relative stereo) [Example 004-164, 6-(cis-2-aminocyclohexylamino)-5-fluoro-2-((1-methoxyisoquinolin-6-yl)amino)-nicotinamide]", "values": [{"measurement": "pIC50", "setting": "[1]; [3]", "value": "6.70 to 6.89"}, {"measurement": "pIC50", "setting": "[2]; [4]", "value": "> 8.00"}]}]}
